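Protocol summary: plate cells (96-well), add compound at 5 concentrations, incubate 48 h, interpolate endpoints linearly. GI50 = concentration required for 50% inhibition of growth. At the TGI there is no net growth.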

What all share (test): NCI-60 cell line screen, 48 h
For experiment [1], the system named is SNB-19 CNS.
The subject of experiment [2] is HCT-116 colon.
For experiment [3], the system named is CCRF-CEM leukemia.
In experiment [4] the test system is COLO 205 colon.
For experiment [5], the system named is UO-31 renal.
Experiment [6] deals with ACHN renal.
Experiment [7] concerns IGROV1 ovarian.
Experiment [8] deals with K-562 leukemia.
The test system of experiment [9] is 786-0 renal.
In experiment [10] the test system is HL-60(TB) leukemia.

For the compound `CCOC(=O)Nc1ccc2nc(Sc3ccc(Cl)cc3)sc2c1`, the GI50 in experiment [1] was 7.31 µM; in [2], 1.19 µM; in experiment [3] it was 4 µM; in experiment [4], 1.45 µM; in experiment [5], 9.57 µM; in experiment [6] it was 11.5 µM. Further, the GI50 in experiment [7] was 5.09 µM; in [8], 0.423 µM; in experiment [9] it was 8.12 µM; in experiment [10], 0.815 µM. Also, the TGI in experiment [1] was more than 100 µM; in [2], 39.3 µM; in experiment [3] it was more than 100 µM; in experiment [4] it was 19 µM; in [5], 79.4 µM; in [6], more than 90.4 µM. Also, the TGI in [7] is more than 100 µM; in experiment [8] it was more than 100 µM; in [9], 40.3 µM; in [10], 30.1 µM.

Take `N#CSc1cc(-c2nc3ccccc3o2)ccc1N`: the GI50 was 59.7 µM in experiment [1]; 26.5 µM in experiment [2]; 10.6 µM in experiment [3]; 40.5 µM in experiment [4]; 22.6 µM in [5]; 19.2 µM in [6]. Moreover, the GI50 was 27.2 µM in [7], 2.55 µM in [8], 33.4 µM in experiment [9] and 0.195 µM in [10]. Besides, the TGI in experiment [1] was more than 100 µM; in experiment [2] it was more than 100 µM; in [3], 30.2 µM; in experiment [4], more than 100 µM; in [5] it was more than 59.4 µM; in experiment [6] it was 58.5 µM. For the same compound, the TGI was more than 70.1 µM in experiment [7], more than 89.3 µM in experiment [8], 97.4 µM in [9] and 0.552 µM in experiment [10].

As for `CC(=O)OC1CC2C(C)(C)C(=O)C=C[C@]2(C)C2CCC3(C)C(=CCC3[C@H](CO)C[C@H](O)C(=O)C(C)(C)O)[C@]12C` (stereo not given in full), the TGI is more than 100 µM in [1]; more than 100 µM in experiment [2]; 66.3 µM in [3]; more than 100 µM in experiment [4]; 39.3 µM in experiment [5]; 50 µM in [6]. The TGI in [7] was 49.1 µM; in experiment [8] it was more than 100 µM; in experiment [9] it was 34.1 µM; in experiment [10], 43.8 µM.

On to `O=C1NC(=Nc2ccccc2Cl)SC1C(=O)Nc1ccc([N+](=O)[O-])cc1[N+](=O)[O-]` (stereo not given), for which the TGI in experiment [1], in experiment [2], in experiment [3], in experiment [4], in experiment [5] and in experiment [6] was more than 100 µM each time. The TGI in experiment [7], in experiment [8], in experiment [9] and in [10] was more than 100 µM in each case.

For the compound `COc1ccc(OC)c(/C=C/C(=O)c2ccc(SC)cc2)c1`, the GI50 was 9.68 µM in experiment [1]; 2.57 µM in [2]; 2.22 µM in [3]; 5.57 µM in experiment [4]; 15.5 µM in [5]; 17.2 µM in [6]. Besides, the GI50 in [7] was 11 µM; in experiment [8], 2.72 µM; in experiment [9] it was 7.53 µM; in [10], 3.65 µM. In addition, the TGI in experiment [1] is 46.5 µM; in [2] it was 7.77 µM; in experiment [3] it was 13.8 µM; in experiment [4] it was more than 100 µM; in experiment [5], 30.7 µM; in [6] it was 38.4 µM. The TGI in experiment [7] is 27.1 µM; in experiment [8] it was 7.44 µM; in experiment [9] it was 21.6 µM; in experiment [10], 12.6 µM.

As for `CCN(Cc1cccc(C)c1)c1ccc(CO)c(Cl)c1`, the GI50 in experiment [1] is 15.8 µM; in experiment [2] it was 0.203 µM; in [3], 15.6 µM; in experiment [4] it was 2.53 µM; in experiment [5] it was 6.47 µM; in experiment [6] it was 14.6 µM. The GI50 in experiment [7] is 0.152 µM; in experiment [8] it was 3.98 µM; in experiment [9], 10.8 µM; in [10] it was 14.1 µM. The TGI in [1] stood at 41 µM; in [2], 10.7 µM; in [3] it was 39.8 µM; in experiment [4], 6.92 µM; in [5], 20.6 µM; in [6], 29.1 µM. Further, the TGI in experiment [7] came to 1.18 µM; in experiment [8], 44.6 µM; in [9], 23.5 µM; in [10], 41.1 µM.

With `Cc1ccc(S(=O)(=O)N/N=C/CN2C(=O)c3ccccc3C2=O)cc1`, the TGI in experiment [1], in [2], in experiment [3], in experiment [4], in experiment [5] and in [6] was more than 100 µM in each case. Besides, the TGI in experiment [7], in experiment [8], in experiment [9] and in experiment [10] was more than 100 µM throughout.

In the case of `Cn1cc(C2=C(c3cccc(Cl)c3)C(=O)NC2=O)c2ccccc21`, the GI50 in experiment [1] is more than 25 µM; in [2] it was more than 25 µM; in experiment [3], more than 25 µM; in experiment [4] it was 5.65 µM; in [5] it was 8.3 µM; in [6], more than 25 µM. In addition, the GI50 in experiment [7] is 12.3 µM; in experiment [8] it was 12.6 µM; in experiment [9], 20.4 µM; in experiment [10], more than 25 µM. For the same compound, the TGI in experiment [1] was more than 25 µM; in experiment [2], more than 25 µM; in experiment [3], more than 25 µM; in experiment [4], 14.4 µM; in experiment [5] it was more than 25 µM; in experiment [6], more than 25 µM. Further, the TGI in experiment [7], in experiment [8], in experiment [9] and in experiment [10] was more than 25 µM each time.

As to `CC(C)S(=O)(=O)ON1C(=O)c2ccc([N+](=O)[O-])cc2C1=O`, the TGI in [1], in experiment [2], in experiment [3], in experiment [4], in experiment [5] and in experiment [6] was more than 100 µM each time. The TGI in [7], in experiment [8], in experiment [9] and in [10] was more than 100 µM each time.

On to `c1ccc(-c2nn(-c3ccccc3)[n+](-c3ccccc3-c3ccccc3)n2)cc1`, for which the GI50 in experiment [1] was 1.24 µM; in experiment [2], 0.699 µM; in experiment [3], 0.743 µM; in experiment [4] it was 0.205 µM; in [5], 11.6 µM; in experiment [6] it was 5.38 µM. Also, the GI50 in [7] was 0.868 µM; in [8] it was 0.456 µM; in [9], 2.96 µM; in experiment [10] it was 0.238 µM. Moreover, the TGI is more than 80.7 µM in experiment [1]; more than 33.3 µM in experiment [2]; 43.7 µM in experiment [3]; 0.856 µM in experiment [4]; more than 77.6 µM in experiment [5]; more than 100 µM in [6]. In addition, the TGI in experiment [7] came out at 16.3 µM; in experiment [8], 15.3 µM; in experiment [9], 21.2 µM; in [10], 0.878 µM.

Turning to `O=C(CN1CCN(c2cc3c(cc2F)c(=O)c(C(=O)O)cn3C2CC2)CC1)Nc1ccc(C(=O)/C=C/c2ccccc2)cc1`, the GI50 in [1] is 3.05 µM; in experiment [2] it was 0.659 µM; in experiment [3], 4.09 µM; in [4] it was 36.3 µM; in experiment [5] it was 2.78 µM; in [6] it was 3.3 µM. Moreover, the GI50 is 3.67 µM in experiment [7], 3.07 µM in experiment [8], 4.5 µM in experiment [9] and 9.44 µM in [10]. Further, the TGI in [1] is more than 100 µM; in [2] it was 2.68 µM; in [3] it was more than 100 µM; in experiment [4], more than 100 µM; in experiment [5] it was 45.4 µM; in experiment [6] it was 31.9 µM. Besides, the TGI in [7], in experiment [8], in [9] and in experiment [10] was more than 100 µM in each case.

Regarding `CN(C)/C=C/C(=O)c1cccc(C(=O)/C=C/N(C)C)n1`, the TGI in experiment [1], in [2], in [3], in experiment [4], in [5] and in experiment [6] was more than 100 µM each time. The TGI in [7], in experiment [8], in experiment [9] and in experiment [10] was more than 100 µM in each case.

With `Cc1cccc(Cc2cnc(NC(=O)/C=C/c3ccco3)s2)c1`, the GI50 is 0.0488 µM in [1]; 0.0425 µM in experiment [2]; 0.0433 µM in [3]; 0.0438 µM in experiment [4]; 0.0847 µM in experiment [5]; 0.0645 µM in [6]. In addition, the GI50 in experiment [7] was 0.0712 µM; in experiment [8], 0.0347 µM; in [9], 0.0598 µM; in experiment [10], 0.0281 µM. Besides, the TGI in experiment [1] was more than 100 µM; in [2] it was more than 100 µM; in experiment [3], more than 100 µM; in experiment [4] it was 1.23 µM; in [5], more than 100 µM; in experiment [6] it was more than 100 µM. Also, the TGI in experiment [7] was more than 100 µM; in experiment [8], more than 100 µM; in [9], more than 100 µM; in experiment [10] it was 0.0837 µM.

`COc1cccc(C2N3CCCCC3[C@@H]3c4[nH]c5ccccc5c4CCN23)c1OC` (stereo not given in full): the TGI in [1] was found to be 24.3 µM; in [2], 31.1 µM; in experiment [3], 35.4 µM; in experiment [4], 29.2 µM; in experiment [5], 28.1 µM; in experiment [6], 28.6 µM. In addition, the TGI in [7] came to 34.7 µM; in [8] it was 30.1 µM; in experiment [9], 32.4 µM; in experiment [10], 31.7 µM.

For `CC(=O)O[C@H]1Cc2c([nH]c3ccccc23)[C@@H](c2ccc(Cl)cc2)N1C(=O)CCNC(C)(C)C`, the GI50 in experiment [1] was 4.64 µM; in experiment [2], 1.64 µM; in [3], 5.12 µM; in experiment [4], 3.47 µM; in experiment [5], 1.45 µM; in experiment [6], 4.13 µM. Further, the GI50 in experiment [7] is 2.19 µM; in experiment [8], 3.08 µM; in experiment [9], 3.64 µM; in [10], 2.51 µM. Also, the TGI is 9.06 µM in [1]; 6.32 µM in experiment [2]; 14.8 µM in [3]; 7.7 µM in experiment [4]; 6.08 µM in experiment [5]; 8.29 µM in [6]. The TGI stood at 7.77 µM in experiment [7], 10.1 µM in experiment [8], 7.92 µM in [9] and 11.7 µM in [10].

In the case of `CC1CC(=O)CC[C@@H]1OCc1ccccc1` (stereo not given in full), the TGI in [1], in experiment [2], in [3], in experiment [4], in experiment [5] and in [6] was more than 100 µM throughout. The TGI in experiment [7], in [8], in [9] and in experiment [10] was more than 100 µM each time.

As to `NC(=O)c1ccc(S(=O)(=NS(=O)(=O)c2ccccc2)c2ccc(C(N)=O)cc2)cc1`, the TGI in [1], in experiment [2], in experiment [3], in experiment [4], in experiment [5] and in experiment [6] was more than 100 µM throughout. Moreover, the TGI in experiment [7], in experiment [8], in [9] and in experiment [10] was more than 100 µM in each case.

Turning to `COC(=O)C([O][Ge]([CH3])([CH3])[CH3])c1ccccc1` (stereo not given), the GI50 in experiment [1], in experiment [2], in [3], in experiment [4], in experiment [5] and in experiment [6] was more than 100 µM in each case. Besides, the GI50 is more than 100 µM in experiment [7], more than 100 µM in experiment [8], more than 100 µM in experiment [9] and 90.8 µM in experiment [10]. Further, the TGI in [1], in [2], in experiment [3], in [4], in experiment [5] and in experiment [6] was more than 100 µM each time. Further, the TGI in experiment [7], in [8], in experiment [9] and in experiment [10] was more than 100 µM each time.

The values are drawn from PubChem BioAssay (NCI).
